The values that follow come from ChEMBL document CHEMBL1201862, “PubChem BioAssay data set” (2004).

Among the test systems are TK-10; 786-0; MDA-MB-435; EKVX; OVCAR-5; SNB-75; COLO 205; UACC-62; M14; SF-539; SR; NCI/ADR-RES; HCT-116; UACC-257; LOX IMVI; OVCAR-3; MDA-MB-231; SNB-19; HOP-92; SK-OV-3.
Holding throughout (test): NCI-60 cell line screen, 48 h

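How tested: cells in 96-well plates exposed to compound for 48 hours at five concentrations. The concentration for 50% growth inhibition is given as GI50.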 Activity calls are given as the source filed them. No stated cut-off is given here; in the data, active = GI50 up to about 1.1 µM and inactive = higher. Bounds are passed on as bounds.

Regarding `Cc1cc(O)c(C(O)c2ccccn2)cc1O` (centres undefined), the GI50 is 16.6 µM (inactive) in the experiment with TK-10; 19.1 µM (inactive) with 786-0; 18.7 µM (inactive) in the experiment on MDA-MB-435; 18.2 µM (inactive) in the experiment with EKVX; 17.2 µM (inactive) in the experiment with OVCAR-5; 14.7 µM (inactive) with SNB-75. The GI50 in the experiment with COLO 205 was 10 µM (inactive); in the experiment on UACC-62, 14.5 µM (inactive); in the experiment with M14 it was 20.2 µM (inactive); with SF-539, 38.8 µM (inactive); in the experiment on SR, 3.01 µM (inactive); with NCI/ADR-RES, 27.5 µM (inactive). Besides, the GI50 is 16.7 µM (inactive) with HCT-116; > 10 µM (inactive) in the experiment with UACC-257; 16.5 µM (inactive) with LOX IMVI; 15 µM (inactive) with OVCAR-3; 17.5 µM (inactive) in the experiment with MDA-MB-231; 55.3 µM (inactive) with SNB-19.

`C=C1C(OC)=C(OC)C(=O)c2[nH]c3c(OC)cc([N+](=O)[O-])cc3c21`: the GI50 in the experiment on TK-10 was > 100 µM (inactive); with 786-0 it was 37.8 µM (inactive); in the experiment on MDA-MB-435 it was > 100 µM (inactive); with EKVX it was 62.4 µM (inactive); in the experiment on OVCAR-5 it was > 100 µM (inactive); in the experiment with SNB-75, 39.1 µM (inactive). Moreover, the GI50 with COLO 205, with HOP-92, with UACC-62, with M14, in the experiment on SF-539 and in the experiment on NCI/ADR-RES was > 100 µM (inactive) in each case. Moreover, the GI50 in the experiment with HCT-116, with UACC-257, with LOX IMVI, in the experiment on OVCAR-3, with MDA-MB-231 and with SNB-19 was > 100 µM (inactive) each time. In addition, in the experiment on SK-OV-3, the GI50 is > 100 µM (inactive).

Turning to `O=C(CC(=O)Nc1ccccc1Cl)NNC(Sc1ccccc1)c1cc(/N=N/c2ccc(Br)cc2)ccc1O` (centres undefined), the GI50 is 1.69 µM (inactive) in the experiment on TK-10; 0.653 µM (active) with 786-0; 2.06 µM (inactive) in the experiment with MDA-MB-435; 3.29 µM (inactive) with EKVX; 3.01 µM (inactive) with OVCAR-5; 4.8 µM (inactive) in the experiment on SNB-75. The GI50 is 4.35 µM (inactive) in the experiment with COLO 205; 2.07 µM (inactive) in the experiment on HOP-92; 1.17 µM (inactive) in the experiment with UACC-62; 0.785 µM (active) in the experiment with M14; 1.45 µM (inactive) in the experiment on SF-539; 1.28 µM (inactive) in the experiment on NCI/ADR-RES. For the same molecule, the GI50 was 0.387 µM (active) with HCT-116; 2.37 µM (inactive) in the experiment on UACC-257; 0.927 µM (active) in the experiment on LOX IMVI; 0.404 µM (active) in the experiment with OVCAR-3; 2.22 µM (inactive) with MDA-MB-231; 4.06 µM (inactive) with SNB-19. Moreover, the GI50 in the experiment with SK-OV-3 is 3.03 µM (inactive).

With `CC1=CC(O)C(C(O)(C(F)(F)F)C(F)(F)F)C(C)(C)C1` (centres undefined), the GI50 was > 10 µM (inactive) in the experiment with TK-10; < 0.001 µM (active) in the experiment on 786-0; < 0.001 µM (active) in the experiment with MDA-MB-435; > 10 µM (inactive) in the experiment on EKVX; > 10 µM (inactive) in the experiment on OVCAR-5; > 10 µM (inactive) in the experiment on SNB-75. The GI50 was > 10 µM (inactive) in the experiment on COLO 205; > 10 µM (inactive) with HOP-92; > 10 µM (inactive) in the experiment with UACC-62; < 0.001 µM (active) with M14; > 10 µM (inactive) in the experiment with SF-539; > 10 µM (inactive) in the experiment with NCI/ADR-RES. The GI50 in the experiment on HCT-116, in the experiment on UACC-257, in the experiment with LOX IMVI, in the experiment on OVCAR-3, in the experiment with MDA-MB-231 and with SNB-19 was > 10 µM (inactive) in each case. Also, in the experiment on SK-OV-3, the GI50 is > 10 µM (inactive).

On to `NC1N=C(c2ccc(Cl)cc2)C2=C(N1)c1ccccc1CC2` (centres undefined), for which the GI50 in the experiment with TK-10 is 48.2 µM (inactive); in the experiment on 786-0, 13.2 µM (inactive); in the experiment on MDA-MB-435 it was 2.62 µM (inactive); with EKVX it was 14.2 µM (inactive); in the experiment with OVCAR-5, 51.1 µM (inactive); in the experiment on SNB-75, 1.71 µM (inactive). In addition, the GI50 with COLO 205 is 33.9 µM (inactive); in the experiment with HOP-92, 33.6 µM (inactive); with UACC-62 it was 15 µM (inactive); in the experiment with M14, 19.9 µM (inactive); in the experiment with SF-539 it was 14.6 µM (inactive); in the experiment with NCI/ADR-RES it was 13 µM (inactive). Further, the GI50 was 8.39 µM (inactive) in the experiment with HCT-116; > 67.3 µM (inactive) with UACC-257; 4.13 µM (inactive) with LOX IMVI; 16.7 µM (inactive) in the experiment on OVCAR-3; 10.5 µM (inactive) in the experiment with MDA-MB-231; > 68.5 µM (inactive) with SNB-19. In the experiment on SK-OV-3, the GI50 was > 100 µM (inactive).

As for `O=C1/C(=C/c2ccco2)N=C2Sc3c([nH]cnc3=O)N12`, the GI50 in the experiment with TK-10, with 786-0, in the experiment with MDA-MB-435, with EKVX, in the experiment with OVCAR-5 and in the experiment with SNB-75 was > 100 µM (inactive) in each case. The GI50 in the experiment on COLO 205, in the experiment with HOP-92, in the experiment with M14, in the experiment with SF-539, with NCI/ADR-RES and in the experiment on HCT-116 was > 100 µM (inactive) in each case. Further, the GI50 in the experiment with UACC-257, in the experiment with LOX IMVI, in the experiment on OVCAR-3, in the experiment on MDA-MB-231, in the experiment with SNB-19 and with SK-OV-3 was > 100 µM (inactive) each time.

As for `COc1cc2c(cc1OC)CC(=O)c1cc(OC)c(OC)cc1/C=C\2`, the GI50 in the experiment on TK-10 is > 12.5 µM (inactive); in the experiment on 786-0 it was > 12.5 µM (inactive); in the experiment on MDA-MB-435, 3.92 µM (inactive); with EKVX, > 12.5 µM (inactive); with OVCAR-5, > 12.5 µM (inactive); with SNB-75, 4.83 µM (inactive). For the same molecule, the GI50 with COLO 205 was 11.1 µM (inactive); in the experiment on HOP-92, > 12.5 µM (inactive); in the experiment with UACC-62, > 12.5 µM (inactive); with M14 it was 9.57 µM (inactive); in the experiment on SF-539, > 12.5 µM (inactive); with NCI/ADR-RES, > 12.5 µM (inactive). Moreover, the GI50 in the experiment on HCT-116, with UACC-257, in the experiment with LOX IMVI, in the experiment with OVCAR-3, with MDA-MB-231 and in the experiment on SNB-19 was > 12.5 µM (inactive) in each case. In the experiment with SK-OV-3, the GI50 is > 12.5 µM (inactive).

`N#CC1=C(N)OC(c2cccc([N+](=O)[O-])c2)C1(C#N)C#N` (centres undefined): the GI50 in the experiment with TK-10 was 19.1 µM (inactive); in the experiment with 786-0, 14.9 µM (inactive); in the experiment on MDA-MB-435, 23.3 µM (inactive); with EKVX, 22.1 µM (inactive); in the experiment with OVCAR-5, 20.6 µM (inactive); in the experiment on SNB-75, 0.78 µM (active). Further, the GI50 is 17 µM (inactive) in the experiment on COLO 205; 16.8 µM (inactive) with HOP-92; 26.6 µM (inactive) with UACC-62; 25.8 µM (inactive) with M14; 21.8 µM (inactive) in the experiment on SF-539; 34.3 µM (inactive) in the experiment with NCI/ADR-RES. Further, the GI50 in the experiment on HCT-116 is 15.2 µM (inactive); in the experiment with UACC-257, 17 µM (inactive); with LOX IMVI, 15.1 µM (inactive); in the experiment on MDA-MB-231, > 10 µM (inactive); in the experiment with SNB-19, 21.8 µM (inactive); with SK-OV-3 it was 70.3 µM (inactive).
